Here are results for one substance from article PMC4096217 (Journal of Medicinal Chemistry, 2014).

This data set has as its system BR+ cancer cell lines (MX-1, MCF-7, ID8, L1210FR). Nature of the data set: MTT cytotoxicity, 72 h, summarised over the four BR+ cancer cell lines. The class given is cell-based. To be noted: Table 1 entries 1 and 2.

For the substance SB-T-1214 [taxoid 1], the “Cytotoxicity relative to camptothecin (times stronger)” value is on record as 148–846 times.
